± gives the expanded uncertainty stated by the source.
Experiment: mn = molality of the nth substance listed, in mol/kg
Settings: for surface tension liquid-gas: Maximal bubble pressure; for mass density: 100 kPa, Liquid, Vibrating tube method

CC(=O)[O-].CCCCCCn1cc[n+](C)c1 [3-hexyl-1-methylimidazolium acetate] + O
Settings	mass density [kg/m3]	surface tension liquid-gas [mN/m]
288.15 K, m1 = 0.0117	1000.09 ± 0.68	73 ± 0.6
288.15 K, m1 = 0.0162	1000.19 ± 0.68	72.9 ± 0.6
288.15 K, m1 = 0.0285	1000.4 ± 0.67	72.7 ± 0.7
288.15 K, m1 = 0.044	1000.58 ± 0.66	72.2 ± 0.7
288.15 K, m1 = 0.1102	1001.44 ± 0.67	70.4 ± 0.7
288.15 K, m1 = 0.1674	1002.13 ± 0.67	68.9 ± 0.6
288.15 K, m1 = 0.2233	1002.92 ± 0.67	67.6 ± 0.6
288.15 K, m1 = 0.2797	1003.61 ± 0.67	66.3 ± 0.6
288.15 K, m1 = 0.3357	1004.39 ± 0.67	65.1 ± 0.6
288.15 K, m1 = 0.3914	1005.11 ± 0.67	63.7 ± 0.6
288.15 K, m1 = 0.4475	1005.8 ± 0.67	62.4 ± 0.6
288.15 K, m1 = 0.5029	1006.52 ± 0.67	61.4 ± 0.6
293.15 K, m1 = 0.0117	999.03 ± 0.69	72.3 ± 0.7
293.15 K, m1 = 0.0162	999.15 ± 0.7	72.2 ± 0.7
293.15 K, m1 = 0.0285	999.32 ± 0.67	71.9 ± 0.7
293.15 K, m1 = 0.044	999.53 ± 0.66	71.3 ± 0.7
293.15 K, m1 = 0.1102	1000.29 ± 0.66	69.6 ± 0.7
293.15 K, m1 = 0.1674	1000.95 ± 0.67	68.2 ± 0.6
293.15 K, m1 = 0.2233	1001.64 ± 0.67	67 ± 0.6
293.15 K, m1 = 0.2797	1002.33 ± 0.67	65.6 ± 0.6
293.15 K, m1 = 0.3357	1003 ± 0.67	64.4 ± 0.6
293.15 K, m1 = 0.3914	1003.71 ± 0.67	63 ± 0.6
293.15 K, m1 = 0.4475	1004.46 ± 0.67	61.7 ± 0.6
293.15 K, m1 = 0.5029	1005.19 ± 0.67	60.7 ± 0.6
298.15 K, m1 = 0.0117	997.74 ± 0.68	71.6 ± 0.7
298.15 K, m1 = 0.0162	997.89 ± 0.69	71.4 ± 0.7
298.15 K, m1 = 0.0285	998.01 ± 0.67	71.1 ± 0.7
298.15 K, m1 = 0.044	998.25 ± 0.66	70.6 ± 0.7
298.15 K, m1 = 0.1102	998.91 ± 0.66	69 ± 0.6
298.15 K, m1 = 0.1674	999.59 ± 0.67	67.5 ± 0.6
298.15 K, m1 = 0.2233	1000.3 ± 0.67	66.2 ± 0.6
298.15 K, m1 = 0.2797	1001 ± 0.67	64.8 ± 0.6
298.15 K, m1 = 0.3357	1001.66 ± 0.67	63.7 ± 0.6
298.15 K, m1 = 0.3914	1002.34 ± 0.67	62.4 ± 0.6
298.15 K, m1 = 0.4475	1003.01 ± 0.67	61.1 ± 0.6
298.15 K, m1 = 0.5029	1003.64 ± 0.66	60.2 ± 0.6
303.15 K, m1 = 0.0117	996.24 ± 0.68	70.7 ± 0.7
303.15 K, m1 = 0.0162	996.35 ± 0.68	70.6 ± 0.7
303.15 K, m1 = 0.0285	996.49 ± 0.67	70.3 ± 0.7
303.15 K, m1 = 0.044	996.69 ± 0.66	69.7 ± 0.7
303.15 K, m1 = 0.1102	997.44 ± 0.66	68.1 ± 0.6
303.15 K, m1 = 0.1674	998.06 ± 0.67	66.8 ± 0.6
303.15 K, m1 = 0.2233	998.79 ± 0.67	65.6 ± 0.6
303.15 K, m1 = 0.2797	999.48 ± 0.67	64.1 ± 0.6
303.15 K, m1 = 0.3357	1000.14 ± 0.66	62.9 ± 0.6
303.15 K, m1 = 0.3914	1000.78 ± 0.66	61.7 ± 0.6
303.15 K, m1 = 0.4475	1001.42 ± 0.66	60.5 ± 0.6
303.15 K, m1 = 0.5029	1002.04 ± 0.66	59.6 ± 0.6
308.15 K, m1 = 0.0117	994.58 ± 0.68	69.8 ± 0.7
308.15 K, m1 = 0.0162	994.69 ± 0.68	69.7 ± 0.7
308.15 K, m1 = 0.0285	994.81 ± 0.66	69.4 ± 0.7
308.15 K, m1 = 0.044	994.99 ± 0.66	68.9 ± 0.7
308.15 K, m1 = 0.1102	995.81 ± 0.66	67.5 ± 0.6
308.15 K, m1 = 0.1674	996.43 ± 0.66	65.9 ± 0.6
308.15 K, m1 = 0.2233	997.08 ± 0.66	64.7 ± 0.6
308.15 K, m1 = 0.2797	997.72 ± 0.66	63.4 ± 0.6
308.15 K, m1 = 0.3357	998.39 ± 0.66	62.2 ± 0.6
308.15 K, m1 = 0.3914	999.02 ± 0.66	61.1 ± 0.6
308.15 K, m1 = 0.4475	999.65 ± 0.66	59.9 ± 0.6
308.15 K, m1 = 0.5029	1000.24 ± 0.66	58.9 ± 0.6
313.15 K, m1 = 0.0117	992.75 ± 0.67	69 ± 0.6
313.15 K, m1 = 0.0162	992.83 ± 0.67	68.9 ± 0.6
313.15 K, m1 = 0.0285	992.94 ± 0.66	68.7 ± 0.6
313.15 K, m1 = 0.044	993.11 ± 0.66	68.2 ± 0.7
313.15 K, m1 = 0.1102	993.86 ± 0.67	66.6 ± 0.6
313.15 K, m1 = 0.1674	994.56 ± 0.67	65.3 ± 0.6
313.15 K, m1 = 0.2233	995.21 ± 0.66	64.1 ± 0.6
313.15 K, m1 = 0.2797	995.84 ± 0.66	62.8 ± 0.6
313.15 K, m1 = 0.3357	996.49 ± 0.66	61.7 ± 0.6
313.15 K, m1 = 0.3914	997.12 ± 0.66	60.5 ± 0.6
313.15 K, m1 = 0.4475	997.73 ± 0.66	59.2 ± 0.6
313.15 K, m1 = 0.5029	998.32 ± 0.66	58.2 ± 0.6
318.15 K, m1 = 0.0117	990.75 ± 0.67	68.2 ± 0.6
318.15 K, m1 = 0.0162	990.81 ± 0.66	68.1 ± 0.6
318.15 K, m1 = 0.0285	990.95 ± 0.66	67.9 ± 0.6
318.15 K, m1 = 0.044	991.1 ± 0.66	67.4 ± 0.7
318.15 K, m1 = 0.1102	991.84 ± 0.66	65.8 ± 0.6
318.15 K, m1 = 0.1674	992.43 ± 0.66	64.4 ± 0.6
318.15 K, m1 = 0.2233	993.11 ± 0.67	63.3 ± 0.6
318.15 K, m1 = 0.2797	993.76 ± 0.66	62.1 ± 0.6
318.15 K, m1 = 0.3357	994.39 ± 0.66	61 ± 0.6
318.15 K, m1 = 0.3914	995 ± 0.66	59.7 ± 0.6
318.15 K, m1 = 0.4475	995.59 ± 0.66	58.5 ± 0.6
318.15 K, m1 = 0.5029	996.16 ± 0.66	57.7 ± 0.6

From the NIST ThermoML archive (doi:10.1016/j.jct.2016.02.001)
